Test results taken from patent US12186283B2, “Bismuth-thiol compositions and methods of use” (Microbion Corporation, priority 2018, dated 2025).
In brackets after ≈: the same amount, converted by molar mass.

Legend:
S. aureus ATCC 29213 [1] = settings: S. aureus ATCC 29213, QC organism; cited from earlier work
S. aureus ATCC 29213 [2] = test: Broth microdilution MIC, ATCC QC organism (Example 12); format: cell-based, Staphylococcus aureus; settings: S. aureus ATCC 29213, QC organism
Experimental: The in vitro activity of BisEDT and two additional bismuth-thiol investigational agents (MB-2B and MB-6) was determined for isolates of Escherichia coli, Klebsiella pneumoniae, Pseudomonas aeruginosa and Acinetobacter baumannii characterized for extended-spectrum β-lactamases (ESBL) and/or carbapenem resistance. In addition, vancomycin-intermediate Staphylococcus aureus (VISA) were evaluated. The majority of the isolates tested in the current study were multidrug-resistant (MDR) as defined by resistance to at least three different antibiotic classes. Susceptibility to the investigational compounds and relevant comparators was determined by broth microdilution conducted in accordance with guidelines from the Clinical and Laboratory Standards Institute (CLSI; 2,3).

[3] = test system: vancomycin-intermediate Staphylococcus aureus (VISA); test: Broth microdilution MIC (Example 12)
S. aureus ATCC 29213 [4] = settings: control strain ATCC 29213 S. aureus; per CLSI M100-S24 or provided by Microbion; cited from earlier work
E. coli ATCC 25922 = settings: control strain ATCC 25922 E. coli; per CLSI M100-S24 or provided by Microbion; cited from earlier work
[5] = test system: Burkholderia spp. (B. cepacia complex); test: MIC against CF isolates (Example 5); format: cell-based; settings: Table 4A
Pseudomonas aeruginosa [6] = test: Broth microdilution MIC (Example 12)
Pseudomonas aeruginosa [7] = settings: P. aeruginosa ATCC 27853, QC organism; cited from earlier work
Acinetobacter baumannii = test: Broth microdilution MIC (Example 12)
Escherichia coli [8] = settings: E. coli ATCC 25922, QC organism; cited from earlier work
Escherichia coli [9] = test: Broth microdilution MIC (Example 12)
Klebsiella pneumoniae = test: Broth microdilution MIC (Example 12)
[10] = Staphylococcus aureus NRS 1 (hVISA)
[11] = Staphylococcus aureus NRS 24 (hVISA)

For CCCCCCCCCC(=O)NC(Cc1c[nH]c2ccccc12)C(=O)NC(CC(N)=O)C(=O)NC(CC(=O)O)C(=O)NC1C(=O)NCC(=O)NC(CCCN)C(=O)NC(CC(=O)O)C(=O)NC(C)C(=O)NC(CC(=O)O)C(=O)NCC(=O)NC(CO)C(=O)NC(C(C)CC(=O)O)C(=O)NC(CC(=O)c2ccccc2N)C(=O)OC1C (stereo not shown) [DAP], the “MIC, QC range” value (S. aureus ATCC 29213 [1]) is given as “(0.12-1) μg/mL”, the MIC (S. aureus ATCC 29213 [2]) is given as 0.5 µg/mL (≈ 0.309 µM) and the MIC [3, 10] is given as 1 µg/mL (≈ 0.617 µM). For the same compound, the MIC ([3]; Staphylococcus aureus NRS 2) was 0.25 µg/mL (≈ 0.154 µM), the MIC ([3]; Staphylococcus aureus NRS 3) was 1 µg/mL (≈ 0.617 µM) and the MIC ([3]; Staphylococcus aureus NRS 4) was 0.5 µg/mL (≈ 0.309 µM). For the same compound, the MIC ([3]; Staphylococcus aureus NRS 13) was 2 µg/mL (≈ 1.23 µM), the MIC ([3]; Staphylococcus aureus NRS 18) was 0.5 µg/mL (≈ 0.309 µM) and the MIC ([3]; Staphylococcus aureus NRS 22) was 2 µg/mL (≈ 1.23 µM). The MIC [3, 11] was 0.5 µg/mL (≈ 0.309 µM) and the MIC ([3]; Staphylococcus aureus NRS 27) was 0.25 µg/mL (≈ 0.154 µM).

For NCC[C@H](O)C(=O)N[C@@H]1C[C@H](N)[C@@H](O[C@H]2O[C@H](CN)[C@@H](O)[C@H](O)[C@H]2O)[C@H](O)[C@H]1O[C@H]1O[C@H](CO)[C@@H](O)[C@H](N)[C@H]1O [Amikacin], the “Expected MIC: acceptable range” value (S. aureus ATCC 29213 [4]) is listed as 1 to 4 µg/mL, the “Expected MIC: goal” value (S. aureus ATCC 29213 [4]) is listed as 2 µg/mL and the “Expected MIC: acceptable range” value (E. coli ATCC 25922) is listed as 0.5 to 4 µg/mL. For the same compound, the “Expected MIC: goal” value (E. coli ATCC 25922) was 1 to 2 µg/mL, the MIC ([5]; strain AU197, B. cenocepacia (B cepacia complex)) was over 64 µg/mL and the MIC ([5]; strain BC5b, B. multivorans (B cepacia complex)) was over 64 µg/mL. For the same compound, the MIC ([5]; strain BC15, B. cenocepacia (B cepacia complex)) was over 64 µg/mL and the MIC ([5]; strain BC17, B. cepacia (B cepacia complex)) was over 64 µg/mL.

For CC(=O)NC[C@H]1CN(c2ccc(N3CCOCC3)c(F)c2)C(=O)O1 [LZD], the “MIC, QC range” value (S. aureus ATCC 29213 [1]) is given as “(1-4) μg/mL”, the MIC (S. aureus ATCC 29213 [2]) is given as 4 µg/mL (≈ 11.9 µM) and the MIC [3, 10] is given as 1 µg/mL (≈ 2.96 µM). It also gave an MIC ([3]; Staphylococcus aureus NRS 2) of 4 µg/mL (≈ 11.9 µM), an MIC ([3]; Staphylococcus aureus NRS 3) of 1 µg/mL (≈ 2.96 µM) and an MIC ([3]; Staphylococcus aureus NRS 4) of 1 µg/mL (≈ 2.96 µM). It also gave an MIC ([3]; Staphylococcus aureus NRS 13) of 2 µg/mL (≈ 5.93 µM), an MIC ([3]; Staphylococcus aureus NRS 18) of 1 µg/mL (≈ 2.96 µM) and an MIC ([3]; Staphylococcus aureus NRS 22) of 1 µg/mL (≈ 2.96 µM). The MIC [3, 11] was 2 µg/mL (≈ 5.93 µM) and the MIC ([3]; Staphylococcus aureus NRS 27) was 2 µg/mL (≈ 5.93 µM).

With C[C@H]1COc2c(N3CCN(C)CC3)c(F)cc3c(=O)c(C(=O)O)cn1c23 [LVX] the MIC (Pseudomonas aeruginosa [6]; P. aeruginosa ATCC 27853, QC organism) was 0.5 µg/mL (≈ 1.38 µM), the MIC (Pseudomonas aeruginosa [6]; Pseudomonas aeruginosa CDC 230, VIM/OXA) was 8 µg/mL (≈ 22.1 µM) and the MIC (Pseudomonas aeruginosa [6]; Pseudomonas aeruginosa CDC 231, KPC/OXA) was over 8 µg/mL. It also gave an MIC (Pseudomonas aeruginosa [6]; Pseudomonas aeruginosa CDC 241, IMP/OXA) of 8 µg/mL (≈ 22.1 µM), an MIC (Pseudomonas aeruginosa [6]; Pseudomonas aeruginosa CDC 246, NDM/OXA) of over 8 µg/mL and an MIC (Pseudomonas aeruginosa [6]; Pseudomonas aeruginosa CDC 250, NDM/OXA) of over 8 µg/mL. For the same compound, the MIC (Pseudomonas aeruginosa [6]; Pseudomonas aeruginosa CDC 356, KPC) was 0.12 µg/mL (≈ 0.332 µM), the MIC (Pseudomonas aeruginosa [6]; Pseudomonas aeruginosa CDC 439, IMP) was 8 µg/mL (≈ 22.1 µM) and the MIC (Pseudomonas aeruginosa [6]; Pseudomonas aeruginosa CDC 444, VIM) was 8 µg/mL (≈ 22.1 µM). For the same compound, the MIC (Pseudomonas aeruginosa [6]; Pseudomonas aeruginosa CDC 457, VIM) was over 8 µg/mL, the MIC (Pseudomonas aeruginosa [6]; Pseudomonas aeruginosa CDC 516, KPC/AmpC) was 0.25 µg/mL (≈ 0.692 µM) and the MIC (Pseudomonas aeruginosa [6]; Pseudomonas aeruginosa CDC 518, KPC/AmpC) was over 8 µg/mL. The “MIC, QC range” value (Pseudomonas aeruginosa [7]) was “(0.5-4) μg/mL”, the “MIC, QC range” value (S. aureus ATCC 29213 [1]) was “(0.06-0.5) μg/mL” and the MIC (S. aureus ATCC 29213 [2]) was 0.06 µg/mL (≈ 0.166 µM). The MIC (Acinetobacter baumannii; Acinetobacter baumannii CDC 273, ESBL/OXA) was over 8 µg/mL, the MIC (Acinetobacter baumannii; Acinetobacter baumannii CDC 274, ESBL/OXA) was 8 µg/mL (≈ 22.1 µM) and the MIC (Acinetobacter baumannii; Acinetobacter baumannii CDC 275, ESBL/OXA) was 4 µg/mL (≈ 11.1 µM). It also gave an MIC (Acinetobacter baumannii; Acinetobacter baumannii CDC 277, ESBL/OXA) of 8 µg/mL (≈ 22.1 µM), an MIC (Acinetobacter baumannii; Acinetobacter baumannii CDC 284, ESBL/OXA) of 8 µg/mL (≈ 22.1 µM) and an MIC (Acinetobacter baumannii; Acinetobacter baumannii CDC 307, OXA) of 8 µg/mL (≈ 22.1 µM). For the same compound, the MIC (Acinetobacter baumannii; Acinetobacter baumannii CDC 308, ESBL/OXA) was 4 µg/mL (≈ 11.1 µM), the MIC (Acinetobacter baumannii; Acinetobacter baumannii CDC 311, OXA) was 2 µg/mL (≈ 5.53 µM) and the MIC (Acinetobacter baumannii; Acinetobacter baumannii CDC 312, OXA) was 2 µg/mL (≈ 5.53 µM). It also gave an MIC (Acinetobacter baumannii; Acinetobacter baumannii CDC 313, ESBL/OXA) of 2 µg/mL (≈ 5.53 µM), an MIC (Acinetobacter baumannii; Acinetobacter baumannii NCTC 13304, OXA) of 1 µg/mL (≈ 2.77 µM) and an MIC [3, 10] of 4 µg/mL (≈ 11.1 µM). It also gave an MIC ([3]; Staphylococcus aureus NRS 2) of 4 µg/mL (≈ 11.1 µM), an MIC ([3]; Staphylococcus aureus NRS 3) of over 8 µg/mL and an MIC ([3]; Staphylococcus aureus NRS 4) of 4 µg/mL (≈ 11.1 µM). It also gave an MIC ([3]; Staphylococcus aureus NRS 13) of 0.12 µg/mL (≈ 0.332 µM), an MIC ([3]; Staphylococcus aureus NRS 18) of 4 µg/mL (≈ 11.1 µM) and an MIC ([3]; Staphylococcus aureus NRS 22) of 8 µg/mL (≈ 22.1 µM). The MIC [3, 11] was over 8 µg/mL, the MIC ([3]; Staphylococcus aureus NRS 27) was 8 µg/mL (≈ 22.1 µM) and the “MIC, QC range” value (Escherichia coli [8]) was “(0.008-0.06) μg/mL”. The MIC (Escherichia coli [9]; E. coli ATCC 25922, QC organism) was at most 0.008 µg/mL, the MIC (Escherichia coli [9]; E. coli ATCC 35218, QC organism) was at most 0.008 µg/mL and the MIC (Escherichia coli [9]; Escherichia coli ATCC 35218, ESBL) was at most 0.008 µg/mL. It also gave an MIC (Escherichia coli [9]; Escherichia coli ATCC BAA-2471, NDM) of over 8 µg/mL, an MIC (Escherichia coli [9]; Escherichia coli CDC 114, ESBL/KPC) of 4 µg/mL (≈ 11.1 µM) and an MIC (Escherichia coli [9]; Escherichia coli CDC 118, ESBL/NDM) of 8 µg/mL (≈ 22.1 µM). For the same compound, the MIC (Escherichia coli [9]; Escherichia coli CDC 435, NDM) was over 8 µg/mL, the MIC (Escherichia coli [9]; Escherichia coli CDC 451, KPC) was over 8 µg/mL and the MIC (Escherichia coli [9]; Escherichia coli CDC 503, ESBL/NDM) was over 8 µg/mL. The MIC (Escherichia coli [9]; Escherichia coli MMX 5745, KPC) was 8 µg/mL (≈ 22.1 µM), the MIC (Escherichia coli [9]; Escherichia coli MMX 5755, ESBL) was 8 µg/mL (≈ 22.1 µM) and the MIC (Escherichia coli [9]; Escherichia coli MMX 5756, ESBL) was 4 µg/mL (≈ 11.1 µM). The MIC (Escherichia coli [9]; Escherichia coli MMX 5758, ESBL) was 8 µg/mL (≈ 22.1 µM), the MIC (Klebsiella pneumoniae; K. pneumoniae ATCC BAA-1705, QC organism) was over 8 µg/mL and the MIC (Klebsiella pneumoniae; Klebsiella pneumoniae ATCC BAA-1705, ESBL/KPC) was over 8 µg/mL. The MIC (Klebsiella pneumoniae; Klebsiella pneumoniae CDC 112, KPC) was 4 µg/mL (≈ 11.1 µM), the MIC (Klebsiella pneumoniae; Klebsiella pneumoniae CDC 113, ESBL/KPC) was 4 µg/mL (≈ 11.1 µM) and the MIC (Klebsiella pneumoniae; Klebsiella pneumoniae CDC 115, ESBL/KPC) was over 8 µg/mL. The MIC (Klebsiella pneumoniae; Klebsiella pneumoniae CDC 120, ESBL/KPC) was over 8 µg/mL, the MIC (Klebsiella pneumoniae; Klebsiella pneumoniae CDC 126, ESBL/KPC) was 0.015 µg/mL (≈ 0.0415 µM) and the MIC (Klebsiella pneumoniae; Klebsiella pneumoniae CDC 129, ESBL/KPC) was over 8 µg/mL. It also gave an MIC (Klebsiella pneumoniae; Klebsiella pneumoniae CDC 135, ESBL/VIM) of over 8 µg/mL, an MIC (Klebsiella pneumoniae; Klebsiella pneumoniae CDC 138, ESBL/NDM) of over 8 µg/mL and an MIC (Klebsiella pneumoniae; Klebsiella pneumoniae CDC 158, ESBL/NDM/OXA) of 4 µg/mL (≈ 11.1 µM). For the same compound, the MIC (Klebsiella pneumoniae; Klebsiella pneumoniae MMX 9029, ESBL) was 0.12 µg/mL (≈ 0.332 µM).
